According to US11136613B2, “Antibacterial polypeptide libraries and methods for screening the same” (priority 2015, dated 2021):

Experiments:
Format in all cases: cell-based
[1] = test system: wild type E. coli strain W3110; conditions: for cell lysis measured by decrease in culture optical density after IPTG induction: surface displayed peptide, E. coli W3110, IPTG added
[2] = test system: E. coli strain WD101; conditions: surface displayed peptide, 2× tether, 0.1 mM IPTG
[3] = test system: E. coli; experiment: Co-culture of 2× tether+cecropin P1 expressing E. coli and empty vector E. coli, CFU plating and plasmid qPCR; conditions: 3 hours
[4] = test system: A. baumannii; experiment: Surface expression of 2× tether+cecropin P1 or HA in A. baumannii; conditions: 2× tether surface expression
Source text: FIG. 3: Surface expression of 2× tether+cecropin P1 or HA in A. baumannii. Addition of IPTG leads to rapid lysis of cecropin P1 containing A. baumannii.
The platform uses a plasmid with a broad host range origin of replication offering flexibility to identify antimicrobial peptides in many gram-negative bacteria. For example, A. baumannii is a gram-negative, hospital-associated pathogen that quickly acquires antibiotic resistance. […] The selective marker on this plasmid can be changed to allow its use in bacteria with different antibiotic resistant profiles.

Substance | cell lysis measured by decrease in culture optical density after IPTG induction [1] | efficiency of cell lysis depending on tether ([1]; two (2×) tandem low-complexity-region protein tethers, versus 0 and 1× tether, 0.1 mM IPTG) | cell lysis in resistant strain WD101 compared with parental strain W3110 [2] | difference in recoverable colony forming units between peptide expressing and control bacteria ([3]; co-culture in equal ratio, 0.1 mM IPTG) | decrease of ratio of peptide encoding plasmid to empty vector (qPCR) ([3]; co-culture, 0.1 mM IPTG induction) [fold] | lysis of A. baumannii after addition of IPTG [4]
Dermaseptin | same impact on cell growth |  |  |  |  | 
cecropin P1 (SWLSKTAKKLENSAKKRISEGIAIAIQGGPR; Cecropin-P1; UniProt P14661 14-44, looked up) [known antimicrobial peptide that lyses many gram-negative bacteria through disruption of the outer membrane; positive control] | begin to lyse | most efficient lysis | less cell lysis | 2-3 log | ~50 | rapid lysis
